Results reported in paper PMC6522510 (Nature Communications, 2019).

What was measured:
Design in all cases: species or system AML cell lines (8); Primary HTS, single concentration about 10 uM, Cell Titer Glo viability; log10 luminescence, per cent inhibition relative to cycloheximide control
Details in all cases: 72 h, relative to cycloheximide control, log10 luminescence; inhibitor
[1] = tested on: CHRF288-11
[2] = tested on: CMK
[3] = tested on: CMS
[4] = tested on: MOLM-13
[5] = tested on: U937
[6] = tested on: ML-2
[7] = tested on: M07e
[8] = tested on: MV4-11

SMILES	CHRF288-11 %inh [1] [%]	CMK %inh [2] [%]	CMS %inh [3] [%]	MOLM-13 %inh [4] [%]	U937 %inh [5] [%]	ML-2 %inh [6] [%]	M07e %inh [7] [%]	MV4-11 %inh [8] [%]
Nc1nc(-c2ccc(F)cc2)c(-c2ccc3ncccc3n2)s1 [SJ000573357-1, R5931/120/1]	7.658	-0.6603	0.9588	3.49	3.577	-0.2788	0.3459	-0.2605
CCS(=O)(=O)c1ccc(OC)c(Nc2ncc(-c3cccc(OC)c3)o2)c1 [SJ000573358-1, U15747/93/1]	1.123	8.053	-1.141	73.64	5.914	1.703	-2.224	70.44
CCCCOCCOc1nc(-c2ccc(C(=O)O)c(F)c2)sc1C [SJ000573474-2, AC 261066]	2.475e-05	1.422	12.33	4.751	6.265	0.9412	1.286	12.22
CC1(C)CCC(C)(C)c2cc(C3(c4ccc5cc(C(=O)O)ccc5c4)SCCS3)ccc21 [SJ000573478-2, MM 11253]	-4.46	-3.669	0.01284	2.534	1.985	0.2271	1.802	1.741
CCOC(=O)C1=C(N)Oc2ccc(Br)cc2[C@H]1[C@H](C#N)C(=O)OCC [SJ000574273-1, HA14-1]	-0.6917	4.094	0.956	2.194	6.381	-0.1514	0.5476	14.02
CCCS(=O)(=O)Nc1ccc(F)c(C(=O)c2c[nH]c3ncc(-c4ccc(Cl)cc4)cc23)c1F [SJ000574274-1, VEMURAFENIB | PLX-4032 | R-7204 | RG-7204 | RO-5185426 | PLX4032 | RG7204 | VEMURAFENIB (PLX4032, RG7204)]	-2.721	1.427	1.477	-2.361	-0.9604	-0.6517	-0.8043	-4.805
NC(=O)c1ccc(-c2nc(-c3ccc4c(c3)OCO4)c(-c3ccccn3)[nH]2)cc1 [SJ000574283-1, SB-431542 | SB431542]	-7.63	-2.116	0.4519	3.22	-2.319	0.07602	-4.824	0.325
CC(C)(C)c1cnc(CSc2cnc(NC(=O)C3CCNCC3)s2)o1 [SJ000574284-1, BMS-387032 | SNS-032]	54.06	91.14	97.36	98.7	69.97	59.52	111.6	73.5
Cc1cc(Nc2cc(N3CCN(C)CC3)nc(Sc3ccc(NC(=O)C4CC4)cc3)n2)n[nH]1 [SJ000574290-1, TOZASERTIB | VX-680 | MK-0457 | VX6 | VX-680 | TOZASERTIB | MK-0457 | | VX-680 (TOZASERTIB, MK-0457)]	110.2	63.64	15.77	88.48	19.84	25.05	61.91	64.96
CC(=O)Nc1cccc(-n2c(=O)n(C3CC3)c(=O)c3c(Nc4ccc(I)cc4F)n(C)c(=O)c(C)c32)c1 [SJ000574293-1, TRAMETINIB | GSK-1120212B | JTP-74057 | 1120212 | GSK-1120212 | GSK1120212 | TRAMETINIB (GSK1120212)]	30.11	4.055	21.59	39.84	11.49	27.14	16.11	40.11
N#CC[C@H](C1CCCC1)n1cc(-c2ncnc3[nH]ccc23)cn1 [SJ000574296-1, RUXOLITINIB | INCB-18424 | INCB-018424 | NCB018424 | INC-424 | INCB-424 | RUXOLITINIB | INCB-18424 | INCB-018424 | NCB018424 | INC-424 | INCB-424 | | RUXOLITINIB (INCB018424) | S-RUXOLITINIB (INCB018424)]	79.68	85.02	86.42	27.41	33.85	4.441	44.64	11.92
CCC(=O)O[C@]1(C(=O)CCl)[C@@H](C)C[C@H]2[C@@H]3C[C@H](F)C4=CC(=O)C=C[C@]4(C)[C@@]3(F)[C@@H](O)C[C@@]21C [SJ000574311-1, HALOBETASOL PROPIONATE]	2.781	-5.875	-1.131	-1.713	2.458	0.4055	1.449	1.288
COC(=O)C1=C(C)N(CCc2cc(OC)c(OC)c(OC)c2)C(=O)N[C@H]1c1ccccc1 [SJ000579768-1]	-6.017	-0.2715	-1.498	-2.193	-0.6782	-0.773	-5.412	3.524
CC1(OC(=O)C2CCCC2)C(=O)C=C2C=C(c3ccsc3)N(CCCCO)C=C2C1=O (stereo not drawn) [SJ000579780-1]	-0.7955	-4.183	0.1638	6.828	-0.2771	-1.026	-0.9393	-0.2702
CC(=O)[C@@H]1[C@@H](C)N(Cc2ccccc2)C(=O)N[C@H]1c1cccc(C(F)(F)F)c1 [SJ000579797-1]	8.301	-5.628	1.099	-2.815	0.542	0.485	-1.436	0.5112
COC(=O)CCC(=O)OC1(C)C(=O)C=C2C=C(C3CC3)N(Cc3ccc(OC)cc3)C=C2C1=O (stereo not drawn) [SJ000579817-1]	-0.5157	0.09613	1.001	6.903	-0.6979	0.04263	4.577	0.1893
COC(=O)CCCC1=CC2=CC(=O)C(C)(OC(=O)c3cccs3)C(=O)C2=CN1C1CCCCC1 (stereo not drawn) [SJ000579837-1]	2.103	6.006	-0.4009	2.949	1.516	1.343	-0.3619	0.3457
COc1ccc(C2=CC3=C(Br)C(=O)C(C)(O)C(=O)C3=CO2)cc1 (stereo not drawn) [SJ000580186-1]	-2.02	-1.841	-0.7753	3.615	1.575	-0.5513	0.3527	1.031
CC1(OC(=O)C2CCCC2)C(=O)C=C2C=C(c3ccsc3)OC=C2C1=O (stereo not drawn) [SJ000580213-1]	1.734	0.9758	3.861	3.751	2.696	-0.1394	-2.766	0.3204
CC1(OC(=O)c2cccs2)C(=O)C=C2C=C3CCCN3C=C2C1=O (stereo not drawn) [SJ000580493-1]	4.124	4.862	2.99	-0.7413	1.415	-0.6831	2.009	2.091
COc1ccc(O)c(C(=O)c2ccc(C(=O)O[C@@H]3CCCNC[C@H]3NC(=O)c3ccncc3)cc2)c1F [SJ000580951-1]	109.9	131.3	13.47	81.23	74.66	61.64	15.86	68.34
